How the values were obtained:
Alternaria solani = test: Alternaria test (tomato)/protective; type: in vivo; conditions: in vivo
Outline: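 Treatment was protective: spray application at the stated rate came one day before spore inoculation. Incubation was 24 h at 22 °C and 100% humidity, then 20 °C and 96% humidity. Infection was rated at day 7 as % efficacy against the control, with 100% meaning no disease.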

Botrytis cinerea = test: Botrytis test (bean)/protective; type: in vivo; conditions: 100 ppm active compound, protective, evaluation 2 days after inoculation
Method: (§1) Solvents: 24.5 parts by weight of acetone
(§2) • 24.5 parts by weight of dimethylacetamide Emulsifier: 1 part by weight of alkylaryl polyglycol ether
(§3) To produce a suitable preparation of active compound, 1 part by weight of active compound is mixed with the stated amounts of solvents and emulsifier, and the concentrate is diluted with water to the desired concentration.
To test for protective activity, young plants are sprayed with the active compound preparation at the stated application rate. After the spray coating has dried on, 2 small pieces of agar colonized by Botrytis cinerea are placed onto each leaf. The inoculated plants are placed in a dark chamber at about 20° C. and 100% relative atmospheric humidity.
2 days after the inoculation, the size of the infected areas on the leaves is evaluated. 0% means an efficacy which corresponds to that of the control, whereas an efficacy of 100% means that no infection is observed.

[1] = test system: Fusarium nivale (var. majus); test: Fusarium nivale (var. majus) test (wheat)/protective; type: in vivo; conditions: 1000 ppm active compound, protective, evaluation 5 days after inoculation
Method: (§4) Solvent: 49 parts by weight of N,N-dimethylacetamide
(§5) Emulsifier: 1 part by weight of alkylaryl polyglycol ether
(§6) To produce a suitable preparation of active compound, 1 part by weight of active compound is mixed with the stated amounts of solvent and emulsifier, and the concentrate is diluted with water to the desired concentration.
(§7) To test for protective activity, young plants are sprayed with the active compound preparation at the stated application rate.
After the spray coating has dried on, the plants are sprayed with spores of a spore suspension of Fusarium nivale (var. majus).
The plants are placed in a greenhouse chamber under a translucent incubation hood at 10° C. and 100% relative atmospheric humidity.
Evaluation is carried out 5 days after the inoculation. 0% means an efficacy which corresponds to that of the control, whereas an efficacy of 100% means that no infection is observed.

Leptosphaeria nodorum = Leptosphaeria nodorum test (wheat)/protective; type: in vivo; conditions: in vivo
Outline: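 Young wheat plants were sprayed protectively, then inoculated 1 day later with L. nodorum spores and held 48 h at 100% humidity and 22° C. They were then kept in a greenhouse at 90% humidity and 22° C. Efficacy was scored 7-9 days post-inoculation, where 0% equals control and 100% means no infection.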

Phytophthora infestans = type: in vivo; conditions: in vivo
Puccinia triticina = Puccinia triticina test (wheat)/protective; type: in vivo; conditions: in vivo
Method: Solvent: 49 parts by weight of […]
as §5, §6, §7
After the spray coating has dried on, the plants are sprayed with spores of a spore suspension of Puccinia triticina. The plants remain in an incubation cabin at 20° C. and 100% relative atmospheric humidity for 48 hours.
The plants are placed in greenhouse at a temperature of about 20° C. and a relative atmospheric humidity of about 80%.
Evaluation is carried out 8 days after the inoculation. 0% means an efficacy which corresponds to that of the control, whereas an efficacy of 100% means that no infection is observed.

Pyrenophora teres = Pyrenophora teres test (barley)/protective; type: in vivo; conditions: in vivo
Outline: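 Efficacy, read 7-9 days after spore inoculation, runs from 0% (equal to untreated control) to 100% (no infection). Barley sprayed with water-diluted DMF/emulsifier formulation was inoculated one day later, incubated 48 h at 22° C. and 100% rel. humidity, then held at 20° C. and 80% humidity.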

Septoria tritici = Septoria tritici test (wheat)/protective; type: in vivo; conditions: in vivo
Method: as §4, §5
To produce a suitable preparation of active compound, 1 part by weight of active compound is mixed with the stated amount of solvent and emulsifier, and the concentrate is diluted with water to the desired concentration.
To test for protective activity, young plants are sprayed with the active compound preparation at the stated application rate. After the spray coating has dried on, the plants are sprayed with a spore suspension of Septoria tritici. The plants remain in an incubation cabin at 20° C. and 100% relative atmospheric humidity for 48 hours. The plants are then placed under a translucent hood at 15° C. and 100% relative atmospheric humidity for a further 60 hours.
The plants are placed in a greenhouse at a temperature of about 15° C. and a relative atmospheric humidity of 80%.
Evaluation is carried out 21 days after the inoculation. 0% means an efficacy which corresponds to that of the control, whereas an efficacy of 100% means that no infection is observed.

Sphaerotheca fuliginea = test: Sphaerotheca test (cucumber)/protective; type: in vivo; conditions: in vivo
Outline: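 Infection was rated 7 days after spore inoculation as % efficacy (0% = control level, 100% = no disease). Inoculation followed 1 day after preventive spray of young cucumbers with compound formulated in N,N-dimethylformamide plus emulsifier and diluted with water; plants were held at 23 °C and 70% relative humidity.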

Uromyces appendiculatus = test: Uromyces test (bean)/protective; type: in vivo; conditions: in vivo
Method: as §1, §2, §3
(§8) To test for protective activity, young plants are sprayed with the active compound preparation at the stated application rate. After the spray coating has dried on, the plants are inoculated with an aqueous spore suspension of the bean rust pathogen Uromyces appendiculatus and then remain in an incubation cabin at about 20° C. and 100% relative atmospheric humidity for 1 day.
(§9) The plants are then placed in a greenhouse at about 21° C. and a relative atmospheric humidity of about 90%.
(§10) Evaluation is carried out 10 days after the inoculation. 0% means an efficacy which corresponds to that of the control, whereas an efficacy of 100% means that no infection is observed.

Venturia inaequalis = test: Venturia test (apple)/protective; type: in vivo; conditions: 100 ppm active compound, protective, evaluation 10 days after inoculation
Method: Solvents: 24.5 parts by weight of acetone • 24.5 parts by weight of dimethylacetamide Emulsifier: 1 part by weight of alkylaryl polyglycol ether
as §3
as §8, with “conidia” for “spore”, “apple scab” for “bean rust”, “Venturia inaequalis” for “Uromyces appendiculatus”
as §9, §10

DON/AcDON production = test: microbe, parasite or virus in culture; type: cell-based, Fusarium graminearum; conditions: 7 days at 28° C.
Fusarium graminearum [2] = test: microbe, parasite or virus in culture; type: cell-based; conditions: 50 μM
Fusarium graminearum [3] = type: in vivo; conditions: in vivo

SMILES | efficacy in % (Alternaria solani) [%] | efficacy in % (Botrytis cinerea) [%] | efficacy in % [1] [%] | efficacy in % (Leptosphaeria nodorum) [%] | efficacy in % (Phytophthora infestans) [%] | efficacy in % (Puccinia triticina) [%] | efficacy in % (Pyrenophora teres) [%] | efficacy in % (Septoria tritici) [%] | efficacy in % (Sphaerotheca fuliginea) [%] | efficacy in % (Uromyces appendiculatus) [%] | efficacy in % (Venturia inaequalis) [%] | % inhibition of DON/AcDON at 50 μM (DON/AcDON production) [%] | % inhibition of the fungal growth of Fusarium graminearum at 50 μM (Fusarium graminearum [2]) [%] | efficacy in % (Fusarium graminearum [3]) [%]
C[C@H](O)C(=O)Nc1cc(-c2c(-c3ccccc3)nn3c2CCCC3)ccn1 [Example 25] | 100 | 90 | 100 | 95 | 80 | 88 | 100 | 86 | 94 | 94 | 94 | 99 | 92 | 
COC(=O)Nc1cc(-c2c(-c3ccccc3)nn3c2CCCC3)ccn1 [Example 27] | 100 | 92 | 86 |  | 80 | 75 | 90 |  |  | 94 | 89 | 99 | 56 | 94
O=C(Nc1cc(-c2c(-c3ccccc3)nn3c2CCCC3)ccn1)c1ccccc1 [Example 33] | 89 | 98 |  | 70 | 70 |  | 78 |  | 95 | 95 | 95 | 99 | 100 | 
O=CNc1cc(-c2c(-c3ccc(F)cc3)nn3c2CCCC3)ccn1 [Example 36] |  |  | 88 | 90 | 80 | 78 | 89 | 100 | 94 | 85 |  | 99 | 94 | 93
O=CNc1cc(-c2c(-c3ccccc3)nn3c2CCCC3)ccn1 [Example 37] | 95 |  | 86 | 90 | 70 | 78 | 100 |  |  |  |  | 99 | 93 | 
CN(C)C=Nc1cc(-c2c(-c3ccccc3)nn3c2CCCC3)ccn1 [Example 38] | 95 |  | 86 |  | 70 |  | 95 |  |  |  |  | 99 | 89 | 
Fc1ccc(-c2nn3c(c2-c2ccncc2)CCCCC3)cc1 [Example 43] | 94 | 99 | 80 | 90 | 70 | 100 | 95 | 100 |  | 90 | 98 | 98 | 100 | 
O=C(Nc1cc(-c2c(-c3ccc(F)cc3)nn3c2CCCC3)ccn1)c1ccsc1 [Example 47] | 90 |  | 80 |  | 80 |  | 90 | 100 | 96 |  |  | 100 | 76 | 
CC(C)(O)C(=O)Nc1cc(-c2c(-c3ccccc3)nn3c2CCCC3)ccn1 [Example 50] | 95 |  | 83 |  |  | 86 | 95 | 90 | 94 |  | 88 | 92 | 57 | 83
O=C(Nc1cc(-c2c(-c3ccccc3)nn3c2CCCC3)ccn1)c1ccsc1 [Example 51] | 95 | 99 |  |  |  |  | 90 |  |  | 86 | 74 | 100 | 41 | 
CC(C)(O)C(=O)Nc1cc(-c2c(-c3ccc(F)cc3)nn3c2CCCC3)ccn1 [Example 55] | 80 |  | 100 | 90 |  | 100 | 95 | 90 | 95 |  |  |  |  | 83
CC(=O)Nc1cc(-c2c(-c3ccsc3)nn3c2CCCC3)ccn1 [Example 58] | 80 | 100 | 100 | 94 | 70 | 100 | 90 | 89 | 96 |  | 99 | 100 | 100 | 100
CCC(=O)Nc1cc(-c2c(-c3ccsc3)nn3c2CCCC3)ccn1 [Example 59] | 70 | 100 | 100 | 89 |  | 100 | 90 |  | 98 |  | 97 | 100 | 100 | 94
CC(C)CC(=O)Nc1cc(-c2c(-c3ccsc3)nn3c2CCCC3)ccn1 [Example 64] | 100 | 100 |  | 94 | 80 |  | 100 |  | 86 | 78 | 99 | 100 | 100 | 
